Experimental data published in patent US20230399608A1, “PROCESS FOR ESTABLISHING A HUMAN TESTICULAR TISSUE CULTURE SYSTEM” (PATERNA BIOSCIENCES INC., priority 2021, published 2023).

Experiments:
[1] = test system: proliferating germ cells in cultured testicular tissue; test: Inhibitor screen in cultured testicular tissue: EdU+ cells per unit area relative to best prior condition; type: cell-based, human; settings: for EdU+/area (um2) to condition 2: ratio of EdU+ cells per unit area in test condition to condition 2, inhibitor at concentration listed in Table 12
From the text: In this study, the HIF-1a, apoptosis, inflammation, ROS, and angiogenesis pathways were primarily targeted to help maintain testicular somatic cell function and promote germ cell proliferation. The level of proliferation was quantified by calculating the number of Edu+ cells (EdU stains the cells that are in the process of replication) per unit area (in μm^2) in each condition and using the ratio of this parameter in the test condition to a previously identified best condition to quantify the effect of the tested condition.

[2] = test system: testicular tissue comprising tubules and germ cells; test: Human testicular tissue culture: morphology and germ cell proliferation (EdU/DDX4); type: cell-based
From the text: Tissue preparation: Whole testes are removed from cadaveric organ donors by DonorConnect staff, which are picked up by Utah team and transported to research lab on ice. Testicular tissues are cut by 3-5 mm by dimeter in size using surgical scissors and tweezers.
Culture media preparation: the base media is αMEM+10% KSR. We first tested various small molecular inhibitors/ligands with different concentrations in the base media to culture testicular tissues.
Tissue culture: Place three pieces of testicular tissue into one well of a 6-well plate with 2 ml of media in each well. The tissue should be fully immersed in media. Place the plate at 34° C. in 5% CO2 in an incubator with culture media changed every other day.
Morphology examination: Measure the sizes of the cultured testicular tissues at different time points, including Day 1, Day 7, Day 14, and Day 21. And then fix the sample for H&E staining.
Germ cell proliferation examination: Add Edu (2 ul into each well) at different time points at Day 0, Day 6, Day 13, Day 20. Harvest the tissue 24 hours later for the germ cell proliferation test. Samples are washed three times by PBS and digested to isolated tubules by collagenase type IV at 37° C. Then wash 3 times by PBS to terminate the digestion and perform whole-mount staining of the tubules with Edu and DDX4/UTF1/SYCP3.

Structure (SMILES)	EdU+/area (um2) to condition 2 [1]	further results
C[C@@H]1[C@H](O)[C@@H](C)/C=C/C=C/CC/C=C/C=C/C=C/C=C/C(O[C@H]2O[C@H](C)[C@@H](O)[C@H](N)[C@@H]2O)CC2O[C@](O)(CC(O)C(O)CCC(O)CC(O)CC(O)CC(=O)O[C@H]1C)CC(O)C2C(=O)O (some centres unmarked) [Nystatin]	2.1	improving germ cell proliferation ([1]; added to first culture condition, FIG. 31 / Table 12): effective at improving germ cell proliferation
CC(C)=CCC[C@](C)(O[C@@H]1O[C@H](CO)[C@@H](O)[C@H](O)[C@H]1O)[C@H]1CC[C@]2(C)[C@@H]1[C@H](O)C[C@@H]1[C@@]3(C)CC[C@H](O)C(C)(C)[C@@H]3[C@@H](O[C@@H]3O[C@H](CO)[C@@H](O)[C@H](O)[C@H]3O[C@@H]3OC[C@@H](O)[C@H](O)[C@H]3O)C[C@]12C [Notoginsenoside R1]	1.5	
c1cc(CN2CCCNCCNCCCNCC2)ccc1CN1CCCNCCNCCCNCC1 [Plerixafor]	1.4	
C[C@]12CC[C@H]3[C@@H](CC[C@]4(O)C[C@@H](O)CC[C@]34C=O)[C@@]1(O)CC[C@@H]2C1=CC(=O)OC1 [Strophanthidin]	2.2	
CS[C@H]1SC[C@H]2C(=O)N(C)[C@@H](C(C)C)C(=O)OC[C@@H](NC(=O)c3cnc4ccccc4n3)C(=O)N[C@@H](C)C(=O)N(C)[C@@H]1C(=O)N(C)[C@@H](C(C)C)C(=O)OC[C@@H](NC(=O)c1cnc3ccccc3n1)C(=O)N[C@@H](C)C(=O)N2C [echinomycin, Echinomycin]		germ cell survival ([2]; even two weeks after start of culture): helps germ cell survival; maintenance of testicular tissue structure ([2]; inhibitor added to base culture media): helps maintain testicular tissue structure
O=C(Nc1ccc([N+](=O)[O-])cc1O)Nc1ccccc1Br [SB225002]	1.7	
